Laboratory results published in PMC11360041 (ACS Omega, 2024).

What was measured:
Bipolaris maydis = format: cell-based; conditions: read-out: Inhibition rate, Bm
Fusarium graminearum = test: microbe, parasite or virus in culture; format: cell-based; conditions: read-out: Inhibition rate, Fg
Rhizoctonia solani = format: cell-based; conditions: read-out: Inhibition rate, Rs
Sclerotinia sclerotiorum = format: cell-based; conditions: read-out: Inhibition rate, Ss
watermelon anthracnose = test: organism not typed; format: cell-based; conditions: read-out: Inhibition rate, Wa
Physalospora piricola = format: cell-based; conditions: read-out: Inhibition rate, Pp, 50 mg/L, Physalospora piricola
Phytophthora capsici = format: cell-based; conditions: read-out: Inhibition rate, Pc
TMV = test: Inactivation effect of compounds against TMV in vivo; design: species or system tobacco mosaic virus; conditions: Tobacco mosaic virus, read-out: relative inhibition rate (%) inactive effect
Alternaria solani = format: cell-based; conditions: read-out: Inhibition rate, As
Botrytis cinerea = format: cell-based; conditions: read-out: Inhibition rate, Bc
[1] = test system: Fusarium oxysporium f. sp. cucumeris; format: cell-based; conditions: read-out: Inhibition rate, Fc

With `O=C(Cn1ccc(=O)c2ccccc21)NN=Cc1cscn1` [Compound 22] the inhibition at 50 µg/mL (Bipolaris maydis) was 8.9 ± 0.8%, the inhibition at 50 µg/mL (Fusarium graminearum) was 2.4 ± 0.5% and the inhibition at 50 µg/mL (Rhizoctonia solani) was 26.8 ± 1.1%. It also gave an inhibition at 50 µg/mL (Sclerotinia sclerotiorum) of 7.3 ± 0.9%, an inhibition at 50 µg/mL (watermelon anthracnose) of 14 ± 1.7% and an inhibition at 50 µg/mL (Physalospora piricola) of 32.4 ± 1.3%. For the same compound, the inhibition at 50 µg/mL (Phytophthora capsici) was 26.2 ± 1.5%, the inhibition at 100 µg/mL (TMV) was 0% and the inhibition at 500 µg/mL (TMV) was 23.9 ± 1.1%. For the same compound, the inhibition at 50 µg/mL (Alternaria solani) was 7.7 ± 1.2%, the inhibition at 50 µg/mL (Botrytis cinerea) was 25 ± 2.1% and the inhibition at 50 µg/mL [1] was 12.2 ± 1.6%.

`CSc1ccc(C=NNC(=O)Cn2ccc(=O)c3ccccc32)cc1` [Compound 10] gave an inhibition at 50 µg/mL (Bipolaris maydis) of 13.3 ± 0.9%, an inhibition at 50 µg/mL (Fusarium graminearum) of 2.4 ± 0.6% and an inhibition at 50 µg/mL (Rhizoctonia solani) of 3.6 ± 1.1%. The inhibition at 50 µg/mL (Sclerotinia sclerotiorum) was 7.3 ± 1.4%, the inhibition at 50 µg/mL (watermelon anthracnose) was 14 ± 1.7% and the inhibition at 50 µg/mL (Physalospora piricola) was 58.8 ± 3.2%. It also gave an inhibition at 50 µg/mL (Phytophthora capsici) of 23.8 ± 1.6%, an inhibition at 100 µg/mL (TMV) of 0% and an inhibition at 500 µg/mL (TMV) of 15.4 ± 2%. For the same compound, the inhibition at 50 µg/mL (Alternaria solani) was 30.8 ± 2.1%, the inhibition at 50 µg/mL (Botrytis cinerea) was 14.6 ± 1.2% and the inhibition at 50 µg/mL [1] was 12.2 ± 1.3%.

`CCOC(=O)Cn1ccc(=O)c2ccccc21` [Compound B, (4-Oxo-4H-quinolin-1-yl)-acetic Acid Ethyl Ester] gave an inhibition at 100 µg/mL (TMV) of 0% and an inhibition at 500 µg/mL (TMV) of 32.1 ± 1.6%.

For `O=C(Cn1ccc(=O)c2ccccc21)NN=Cc1cccnc1` [Compound 19], the inhibition at 50 µg/mL (Bipolaris maydis) was 46.7 ± 1.1%, the inhibition at 50 µg/mL (Fusarium graminearum) was 26.2 ± 0.9% and the inhibition at 50 µg/mL (Rhizoctonia solani) was 26.8 ± 1.4%. For the same compound, the inhibition at 50 µg/mL (Sclerotinia sclerotiorum) was 36.6 ± 1.6%, the inhibition at 50 µg/mL (watermelon anthracnose) was 46.5 ± 1.3% and the inhibition at 50 µg/mL (Physalospora piricola) was 44.1 ± 2.8%. The inhibition at 50 µg/mL (Phytophthora capsici) was 14.3 ± 1.2%, the inhibition at 100 µg/mL (TMV) was 0% and the inhibition at 500 µg/mL (TMV) was 20.5 ± 3.6%. It also gave an inhibition at 50 µg/mL (Alternaria solani) of 46.2 ± 2.2%, an inhibition at 50 µg/mL (Botrytis cinerea) of 20.8 ± 0.9% and an inhibition at 50 µg/mL [1] of 26.5 ± 0.7%.

For `O=C(Cn1ccc(=O)c2ccccc21)NN=Cc1ccc(F)cc1` [Compound 12], the inhibition at 50 µg/mL (Bipolaris maydis) was 15.6 ± 1.7%, the inhibition at 50 µg/mL (Fusarium graminearum) was 21.4 ± 1.4% and the inhibition at 50 µg/mL (Rhizoctonia solani) was 32.1 ± 2.1%. For the same compound, the inhibition at 50 µg/mL (Sclerotinia sclerotiorum) was 7.3 ± 1.2%, the inhibition at 50 µg/mL (watermelon anthracnose) was 16.3 ± 1.6% and the inhibition at 50 µg/mL (Phytophthora capsici) was 14.3 ± 1.6%. The inhibition at 100 µg/mL (TMV) was 0%, the inhibition at 500 µg/mL (TMV) was 27.4 ± 3.9% and the inhibition at 50 µg/mL (Alternaria solani) was 23.1 ± 1.1%. The inhibition at 50 µg/mL (Botrytis cinerea) was 25 ± 1.4% and the inhibition at 50 µg/mL [1] was 16.3 ± 1.5%.

With `O=C(Cn1ccc(=O)c2ccccc21)NN=Cc1ccc([N+](=O)[O-])cc1` [Compound 15] the inhibition at 50 µg/mL (Bipolaris maydis) was 40 ± 1.3%, the inhibition at 50 µg/mL (Fusarium graminearum) was 7.1 ± 1.3% and the inhibition at 50 µg/mL (Rhizoctonia solani) was 17.9 ± 1.3%. For the same compound, the inhibition at 50 µg/mL (Sclerotinia sclerotiorum) was 12.2 ± 1.4%, the inhibition at 50 µg/mL (watermelon anthracnose) was 34.9 ± 1.5% and the inhibition at 50 µg/mL (Physalospora piricola) was 72.1 ± 2.6%. For the same compound, the inhibition at 50 µg/mL (Phytophthora capsici) was 14.3 ± 0.6%, the inhibition at 100 µg/mL (TMV) was 0% and the inhibition at 500 µg/mL (TMV) was 16.1 ± 4.8%. For the same compound, the inhibition at 50 µg/mL (Alternaria solani) was 30.8 ± 1.1%, the inhibition at 50 µg/mL (Botrytis cinerea) was 27.1 ± 2.4% and the inhibition at 50 µg/mL [1] was 24.5 ± 1.6%.

`O=C(Cn1ccc(=O)c2ccccc21)NN=Cc1ccccc1[N+](=O)[O-]` [Compound 16] showed an inhibition at 50 µg/mL (Bipolaris maydis) of 13.3 ± 1.5%, an inhibition at 50 µg/mL (Fusarium graminearum) of 23.8 ± 1.7% and an inhibition at 50 µg/mL (Rhizoctonia solani) of 35.7 ± 1.5%. The inhibition at 50 µg/mL (Sclerotinia sclerotiorum) was 24.4 ± 1.1%, the inhibition at 50 µg/mL (watermelon anthracnose) was 23.3 ± 1.6% and the inhibition at 50 µg/mL (Phytophthora capsici) was 14.3 ± 0.7%. For the same compound, the inhibition at 100 µg/mL (TMV) was 0%, the inhibition at 500 µg/mL (TMV) was 14.6 ± 4% and the inhibition at 50 µg/mL (Alternaria solani) was 30.8 ± 1.4%. The inhibition at 50 µg/mL (Botrytis cinerea) was 20.8 ± 1.2% and the inhibition at 50 µg/mL [1] was 18.4 ± 1.3%.

In the case of `O=C(Cn1ccc(=O)c2ccccc21)NN=Cc1ccc(-n2cccn2)cc1` [Compound 9], the inhibition at 50 µg/mL (Bipolaris maydis) is reported as 15.6 ± 2.1%, the inhibition at 50 µg/mL (Fusarium graminearum) is reported as 9.5 ± 0.5% and the inhibition at 50 µg/mL (Rhizoctonia solani) is reported as 35.7 ± 2.2%. The inhibition at 50 µg/mL (Sclerotinia sclerotiorum) was 12.2 ± 1.8%, the inhibition at 50 µg/mL (watermelon anthracnose) was 14 ± 1.5% and the inhibition at 50 µg/mL (Physalospora piricola) was 27.9 ± 1.2%. It also gave an inhibition at 50 µg/mL (Phytophthora capsici) of 14.3 ± 1.1%, an inhibition at 100 µg/mL (TMV) of 5.1 ± 0.8% and an inhibition at 500 µg/mL (TMV) of 38.1 ± 3.2%. The inhibition at 50 µg/mL (Alternaria solani) was 38.5 ± 1.3%, the inhibition at 50 µg/mL (Botrytis cinerea) was 25 ± 1.5% and the inhibition at 50 µg/mL [1] was 18.4 ± 0.7%.

For `O=C(Cn1ccc(=O)c2ccccc21)NN=Cc1ccco1` [Compound 20], the inhibition at 50 µg/mL (Bipolaris maydis) was 20 ± 1.1%, the inhibition at 50 µg/mL (Fusarium graminearum) was 14.3 ± 1.4% and the inhibition at 50 µg/mL (Rhizoctonia solani) was 35.7 ± 1.8%. For the same compound, the inhibition at 50 µg/mL (Sclerotinia sclerotiorum) was 36.6 ± 1.7%, the inhibition at 50 µg/mL (watermelon anthracnose) was 16.3 ± 1.6% and the inhibition at 50 µg/mL (Physalospora piricola) was 39.7 ± 1.3%. For the same compound, the inhibition at 50 µg/mL (Phytophthora capsici) was 14.3 ± 1.1%, the inhibition at 100 µg/mL (TMV) was 0% and the inhibition at 500 µg/mL (TMV) was 29.7 ± 3.6%. It also gave an inhibition at 50 µg/mL (Alternaria solani) of 38.5 ± 0.5%, an inhibition at 50 µg/mL (Botrytis cinerea) of 20.8 ± 1.3% and an inhibition at 50 µg/mL [1] of 16.3 ± 2%.

Compound `CN(C)c1ccc(C=NNC(=O)Cn2ccc(=O)c3ccccc32)cc1` [Compound 8] has an inhibition at 50 µg/mL (Bipolaris maydis) of 13.3 ± 1.4%, an inhibition at 50 µg/mL (Fusarium graminearum) of 23.8 ± 1.9% and an inhibition at 50 µg/mL (Rhizoctonia solani) of 35.7 ± 2.1%. The inhibition at 50 µg/mL (Sclerotinia sclerotiorum) was 12.2 ± 1.3%, the inhibition at 50 µg/mL (watermelon anthracnose) was 16.3 ± 1.7% and the inhibition at 50 µg/mL (Physalospora piricola) was 29.4 ± 2.3%. The inhibition at 50 µg/mL (Phytophthora capsici) was 14.3 ± 1.8%, the inhibition at 100 µg/mL (TMV) was 0% and the inhibition at 500 µg/mL (TMV) was 28.1 ± 1.3%. For the same compound, the inhibition at 50 µg/mL (Alternaria solani) was 30.8 ± 2.3%, the inhibition at 50 µg/mL (Botrytis cinerea) was 25 ± 1.2% and the inhibition at 50 µg/mL [1] was 16.3 ± 1.6%.

`O=C(Cn1ccc(=O)c2ccccc21)NN=Cc1ccc(Cl)cc1` [Compound 13] showed an inhibition at 50 µg/mL (Bipolaris maydis) of 8.9 ± 0.7%, an inhibition at 50 µg/mL (Fusarium graminearum) of 2.4 ± 0.9% and an inhibition at 50 µg/mL (Rhizoctonia solani) of 12.5 ± 1.4%. It also gave an inhibition at 50 µg/mL (Sclerotinia sclerotiorum) of 7.3 ± 0.5%, an inhibition at 50 µg/mL (watermelon anthracnose) of 27.9 ± 2.3% and an inhibition at 50 µg/mL (Physalospora piricola) of 17.6 ± 1.5%. It also gave an inhibition at 50 µg/mL (Phytophthora capsici) of 14.3 ± 1.3%, an inhibition at 100 µg/mL (TMV) of 0% and an inhibition at 500 µg/mL (TMV) of 18.6 ± 0.7%. It also gave an inhibition at 50 µg/mL (Alternaria solani) of 30.8 ± 1.3%, an inhibition at 50 µg/mL (Botrytis cinerea) of 14.6 ± 1.3% and an inhibition at 50 µg/mL [1] of 24.5 ± 1.3%.
